Columns and labels:
[1] = tested on: CD9/CD63/CD81 in the extracellular vesicles; experiment: Digital CD9/CD63/CD81 sandwich detection with biotinylated detection antibody and streptavidin-conjugated β-galactosidase; format: binding, Human; conditions: Example 33, 30° C., 4 h
Procedure: An anti-CD9 antibody (ab58989), an anti-CD63 antibody (ab59479), and an anti-CD81 antibody (ab59477) were buffer-exchanged into Biotinylation Reaction Buffer to provide an antibody solution. A biotinylation reagent NHS-PEG4-Biotin was added to the solution, and the mixture was stirred and then subjected to a reaction at room temperature for 30 minutes. After that, the resultant was washed with Biotinylation Reaction Buffer, and then recovered with Biotinylation Reaction Buffer to provide a biotinylated detection antibody solution. The biotinylated detection antibody solution was stored at 4° C. until use.
(§1) For detection of MMP14 activity, 1 mM Custom #2 and a 100 µM resorufin β-D-galactopyranoside solution were diluted with the buffer (4) to prepare a MMP14 and CD9/CD63/CD81 cocktail detection solution (1) containing 10 μM Custom #2 and 5 μM resorufin β-D-galactopyranoside. In addition, the solution was diluted 2-fold with the buffer (4) to prepare a detection solution (2). Nonfluorescent resorufin β-D-galactopyranoside is degraded by β-galactosidase to produce fluorescent resorufin. In this case, the maximum wavelengths of excitation and fluorescence of resorufin are 570 nm and 585 nm, respectively.
The observation of fluorescence derived from each fluorescent substance was performed under the same conditions as in Example 19 to acquire a fluorescence image. In this case, a TRITC filter was used in the observation of the fluorescence from resorufin.

[2] = tested on: β-galactosidase activity inherent in the MDA-MB-231-derived extracellular vesicles; experiment: Evaluation of β-galactosidase activity of MDA-MB-231-derived extracellular vesicles in 96-well plate; format: biochemical, Human; conditions: Example 33, 30° C., no CD9/CD63/CD81 detection system
Procedure: as §1, with “([…])” for “(4) to prepare a MMP14 and CD9/CD63/CD81 cocktail detection solution (1)”
In addition, 50 μL of the detection solution (1) was added to 50 μL of each of the prepared standard samples with seven concentrations and the sample for BG measurement, and the resultant solution was used in measurement of MMP14 activity and β-galactosidase activity with a 96-well plate.
Evaluation was performed in the same manner as in Example 1 except that the reaction temperature was set to 30° C. ΔRFU was calculated by subtracting the measured value of the sample for BG measurement from the measured value of each of the samples. In this case, resorufin produced by β-galactosidase activity was simultaneously measured at an excitation wavelength of 545±20 nm and a fluorescence wavelength of 590±20 nm, and ΔRFU was calculated similarly.

Q: Which results are given for `O=c1ccc2nc3ccc(O[C@@H]4O[C@H](CO)[C@H](O)[C@H](O)[C@H]4O)cc3oc-2c1` [resorufin β-D-galactopyranoside]?
A: Expected value λ (CD9/CD63/CD81) ([1]; EV 0 (BG)): 0.00927; Number of positives (CD9/CD63/CD81) ([1]; EV 0 (BG)): 20; Expected value λ (CD9/CD63/CD81) ([1]; EV X1 (sample 10 μg/mL)): 2.86; Number of positives (CD9/CD63/CD81) ([1]; EV X1 (sample 10 μg/mL)): 2,166; Expected value λ (CD9/CD63/CD81) ([1]; EV X1/3): 1.87; Number of positives (CD9/CD63/CD81) ([1]; EV X1/3): 2,315; Expected value λ (CD9/CD63/CD81) ([1]; EV X1/9): 0.750; Number of positives (CD9/CD63/CD81) ([1]; EV X1/9): 1,544; Expected value λ (CD9/CD63/CD81) ([1]; EV X1/27): 0.339; Number of positives (CD9/CD63/CD81) ([1]; EV X1/27): 725; Expected value λ (CD9/CD63/CD81) ([1]; EV X1/81): 0.0928; Number of positives (CD9/CD63/CD81) ([1]; EV X1/81): 144; Expected value λ (CD9/CD63/CD81) ([1]; EV X1/243): 0.0427; Number of positives (CD9/CD63/CD81) ([1]; EV X1/243): 78; Expected value λ (CD9/CD63/CD81) ([1]; EV X1/729): 0.0240; Number of positives (CD9/CD63/CD81) ([1]; EV X1/729): 44; β-galactosidase activity (temporal changes in fluorescence intensity) [2]: the activity was not able to be detected at all

— patent US20250290928A1, “METHOD, KIT AND DEVICE FOR DETECTING EXTRACELLULAR VESICLES” (priority 2022, published 2025)
